Here are results for 19 compounds from ChEMBL document CHEMBL3352383, “Trends and exceptions of physical properties on antibacterial activity for Gram-positive and Gram-negative pathogens” (J Med Chem, 2014).

In brackets after ≈: the same amount, converted by molar mass. Some results are limits rather than exact numbers.

The subject of data set [1] is Escherichia coli. As to the kind of experiment: Antibacterial activity against tolC-deficient Escherichia coli. To be noted: for MIC: Escherichia coli. It counts as functional.
In data set [2] the test system is Escherichia coli. As to the kind of experiment: Antibacterial activity against wild-type Escherichia coli. To be noted: for MIC: Escherichia coli. It counts as functional.
Data set [3] in a line: Lipophilicity, log D of the compound. The settings on record: octanol/water.
For data set [4], the system named is Pseudomonas aeruginosa. As to the kind of experiment: Antibacterial activity against wild-type Pseudomonas aeruginosa. To be noted: for MIC: Pseudomonas aeruginosa. Format: functional.
Data set [5] concerns Pseudomonas aeruginosa. As to the kind of experiment: Antibacterial activity against MeXABCDXY-deficient Pseudomonas aeruginosa. It counts as functional. The settings on record: for MIC: Pseudomonas aeruginosa.
Data set [6] relates to Pseudomonas aeruginosa. As to the kind of experiment: Ratio of MIC for wild-type Pseudomonas aeruginosa to MIC for MeXABCDXY-deficient Pseudomonas aeruginosa. It counts as functional.
Data set [7] in a line: Inhibition of Escherichia coli TrmD.
Data set [8] can be described thus: Inhibition of Haemophilus influenzae TrmD.
In data set [9] the test system is Haemophilus influenzae. Put plainly: Antibacterial activity against acrB-deficient Haemophilus influenzae. Format: functional.
Data set [10] is described as follows: Inhibition of Haemophilus influenzae GlmU.
Data set [11] can be described thus: Inhibition of Escherichia coli GlmU.
In data set [12] the test system is Escherichia coli. Put plainly: Antibacterial activity against tolC-deficient Escherichia coli in presence of 2% HSA. Format: functional. To be noted: for MIC: Escherichia coli.
Data set [13] relates to Escherichia coli. Put plainly: Ratio of MIC for wild-type Escherichia coli to MIC for tolC-deficient Escherichia coli. It counts as functional.
Data set [14] can be described thus: Inhibition of Pseudomonas aeruginosa MurC.
The subject of data set [15] is Staphylococcus aureus. As to the kind of experiment: Antibacterial activity against wild-type Staphylococcus aureus. Format: functional.
In data set [16] the test system is Staphylococcus aureus. Put plainly: Antibacterial activity against wild-type Staphylococcus aureus in presence of 2% HSA. Format: functional.
Data set [17] deals with Staphylococcus aureus. As to the kind of experiment: Ratio of MIC for wild-type Staphylococcus aureus in presence of 2% HSA to MIC for wild-type Staphylococcus aureus. It counts as functional.
Data set [18] has as its system Escherichia coli. As to the kind of experiment: Ratio of MIC for […] tolC-deficient Escherichia coli in presence of 2% HSA to MIC for tolC-deficient Escherichia coli in presence of 2% HSA. It counts as functional.

The logD is lipophilicity at a set pH, counting ionised and neutral species. In the case of `N=C(N)SCc1ccc(Cl)c(Cl)c1`, the Activity is over 32 µg/mL in data set [1], over 32 µg/mL in data set [2], 4 µg/mL in data set [4] and 1 µg/mL in data set [5]. This compound yielded a logD in data set [3] of 1.4.
For the compound `N=C(N)SCc1ccc(Cl)cc1`, the MIC in data set [2] is over 50 µM; in data set [4] it was 12.5 µM; in [5], 6.25 µM. In data set [6], the Ratio is on record as 2.
A word on the IC50: it is the concentration at which inhibition is half-maximal. Read a high IC50 as weaker potency. Consider `Oc1ncnc2scc(-c3ccccc3)c12`, for which the MIC in [1] and in data set [9] was over 64 µg/mL in each case. The IC50 was 17000 nM in [7] and under 5000 nM in data set [8].
As for `COc1cc(OC)c(S(=O)(=O)N2c3ccccc3CC2C)cc1NC(C)=O` (stereo not drawn), the MIC in [1] and in data set [9] was over 64 µg/mL in each case. Also, the results for the IC50 in data set [10] and in [11] were 7800 nM and 2100 nM, respectively.
On to `COc1cc(OC)c(S(=O)(=O)N2c3ccccc3Oc3ccccc32)cc1NC(=O)CCC(=O)O`, for which the MIC in data set [1] was over 64 µg/mL; in [9], 32 µg/mL (≈ 64.2 µM). Also, the results for the IC50 in data set [10] and in [11] were 23 nM and 7 nM, respectively.
As for `O=C(NCc1ccc(CN2CC[C@H](O)C2)cc1)c1csc2nc[nH]c(=O)c12`, the MIC in [1] and in data set [9] was over 64 µg/mL each time. Besides, the logD in [3] is 0.37. Also, the IC50 in [7] came to 290 nM; in data set [8], 420 nM.
Take `Fc1ccc(COc2cccc(-c3n[nH]cc3-c3ccncc3)c2)cc1`: the Activity in data set [1] was under 0.063 µg/mL; in data set [12], 16 µg/mL; in data set [2], 8 µg/mL. In data set [3], this compound came in with a pH-dependent lipophilicity (logD) of 4.3.
`CC(C)(C)c1nc(-c2ccc3c(c2)OCCO3)c(-c2ccncc2)[nH]1`: the Activity was 0.25 µg/mL in data set [1], 4 µg/mL in data set [12] and 32 µg/mL in [2]. In addition, the logD in data set [3] amounted to 3.22.
As for `CC(C)(O)[C@H](NC(=O)c1ccc(C#CC#CC2CC2)cc1)C(=O)NO`, the Activity in [1] was under 0.063 µg/mL; in data set [12] it was under 0.063 µg/mL; in data set [2] it was under 0.063 µg/mL; in data set [4], 0.25 µg/mL; in data set [5], under 0.06 µg/mL. The compound also yielded a log distribution coefficient (logD) in [3] of 2.3.
Take `NC[C@H]1OB(O)c2ccccc21`: the MIC came to 12.5 µM in [1], 12.5 µM in data set [2], 6.25 µM in [4] and 6.25 µM in data set [5]. Also, the Ratio in data set [13] and in data set [6] was 1 each time.
For `CO[C@H]1CN(c2nc(-c3cnc(N4CCN[C@H](C)C4)cn3)c(C(=O)O)s2)CC[C@H]1NC(=O)c1[nH]c(C)c(Cl)c1Cl`, the MIC in data set [1] was 0.39 µM; in data set [2], over 25 µM; in data set [4], 25 µM; in data set [5] it was 3.13 µM. The Ratio in data set [13] stood at 64; in data set [6], 8.
Turning to `OCC1CCCCN1c1nc(Nc2cc(C3CC3)[nH]n2)c2cn[nH]c2n1` (stereo not drawn), the MIC in data set [1], in data set [2], in data set [4] and in [5] was over 64 µg/mL each time. The compound also showed a logD in data set [3] of 2.85. Moreover, the 50% inhibitory concentration (IC50) turned out to be 1000 nM in data set [14] and 1200 nM in [7].
As to `Cn1nc(Nc2nc(N[C@H](CO)c3ccccc3)nc3[nH]ncc23)cc1C(C)(C)C`, the MIC in data set [1] was 2 µg/mL; in data set [2], over 64 µg/mL; in [4], over 64 µg/mL; in data set [5] it was 1.5 µg/mL. For the same compound, the logD in data set [3] was determined as 3.33. Moreover, the IC50 in [14] was 1 nM; in data set [7] it was under 0.5 nM.
For the compound `CC[C@]1(C)C[C@@H](OC(=O)CSc2nnc(N)[nH]2)[C@]2(C)[C@H](C)CC[C@]3(CCC(=O)[C@H]32)[C@@H](C)[C@@H]1O` [AZAMULIN], the MIC is 4 µg/mL in data set [1]; 8 µg/mL in [12]; over 64 µg/mL in data set [2]; 2 µg/mL (≈ 4.18 µM) in data set [15]; 2 µg/mL in data set [16]. For the same compound, the figures for the Ratio in data set [17] and in [18] were 1 and 2, respectively.
In the case of `Cc1cc(O)c(C(=O)N[C@@H](C(=O)N[C@@H]2C(=O)N3C(C(=O)O)=C(CSc4nnnn4C)CS[C@H]23)c2ccc(O)cc2)cn1` [CEFPIRAMIDE], the MIC in data set [1] is 0.5 µg/mL; in data set [12] it was 6.4 µg/mL; in data set [2], 16 µg/mL; in [15], 32 µg/mL (≈ 52.2 µM); in [16] it was over 64 µg/mL. In addition, the Ratio in data set [18] is recorded as 128.
Turning to `CC(C)(O/N=C(\C(=O)N[C@@H]1C(=O)N2C(C(=O)[O-])=C(C[n+]3ccccc3)CS[C@H]12)c1csc(N)n1)C(=O)O` [CEFTAZIDIME], the MIC in data set [1] amounted to 0.5 µM; in [2], 0.8 µM. The Ratio in data set [13] stood at 1.6.
Regarding `C[C@@H](O)[C@H]1C(=O)N2C(C(=O)O)=C([C@H]3CCCO3)S[C@H]12` [FAROPENEM], the MIC in data set [1] was 6.25 µM; in data set [2], 3.13 µM; in data set [4], under 100 µM.
Consider `CC1COc2c(N3CCN(C)CC3)c(F)cc3c(=O)c(C(=O)O)cn1c23` (stereo not drawn) [OFLOXACIN], for which the MIC in data set [1] is 0.08 µM; in data set [2] it was 0.24 µM; in [4], 5.2 µM; in data set [5], under 0.08 µM. Further, the Ratio in data set [13] is on record as 3; in [6] it was 62.
In the case of `CCCCCC1=C/C(=C/c2[nH]c(-c3ccc[nH]3)cc2OC)N=C1C` [PRODIGIOSIN], the MIC in data set [1] is 1 µg/mL; in data set [12], over 32 µg/mL; in data set [2], 2 µg/mL; in data set [15], 2 µg/mL (≈ 6.18 µM); in data set [16], 16 µg/mL. Moreover, the Ratio in data set [17] is reported as 8; in data set [18], 2.
